According to publication PMC3950497 (Advances in Pharmacological Sciences, 2014):
Counter-ions that a name gives are not always drawn. Like-named read-outs stand apart in the source and are kept apart here.

Tests used:
synaptic transmission = test system: synaptic transmission; set-up: method as in PMID 1652103; conditions: at low concentration; cited from earlier work
pseudocholinesterase = test system: pseudocholinesterase; set-up: method as in ref 11 = [11]; 11 Berezhinskaya VV Nikittna SS Trutneva EA Medicinal plants pharmacology and chemotherapy Trudy Vsesoyuznogo Nauchno-Issledovatel'skogo Instituta Lekarstvenny Rastenii 1971 14 66 69; conditions: in vitro; cited from earlier work
[1] = without side effects such as α- or β-adrenergic blockade, sedative or depressant effect; cited from earlier work
cholinesterase = test system: cholinesterase; set-up: method as in ref 11 = [11]; 11 Berezhinskaya VV Nikittna SS Trutneva EA Medicinal plants pharmacology and chemotherapy Trudy Vsesoyuznogo Nauchno-Issledovatel'skogo Instituta Lekarstvenny Rastenii 1971 14 66 69; conditions: in vitro; cited from earlier work
[2] = dichloromethane and hexane as extracting solvents
[3] = water and aqueous alcohol; cited from earlier work
[4] = format: in vivo, rabbit; conditions: i.m. injection, plasma, from 15 min, extrapolated to infinity
Procedure: The selected rabbits were administrated intramuscular with stephaglabrine sulfate at doses 0.1 mg/kg as it was established before. Each animal received a single dose.
Quantitative analysis was acquired in SRM (selected reactions monitoring) mode on Agilent 6490 triple quadrupole mass spectrometer (Agilent, USA) operated in the positive mode and equipped with Jet Stream ESI ion source. Stepharine was detected in the scheduled selected reaction monitoring (SRM) with unit resolution at both first (Q1) and third (Q3) quadrupoles. The retention time point of stepharine was determined as 9.8 with isolation width of 1 minute for the scheduled SRM method application. The optimal conditions of the analysis were achieved as follows: capillary voltage was −4500 V, nozzle voltage was set at −1200 V, flow rate of drying gas (N2) was 16 L/min, flow rate of sheath gas (N2) was 8 L/min, temperature of drying gas was set at 340°C, temperature of sheath gas was set at 290°C, and nebulizer gas was operated at 20 psi. The transitions for protonated stepharine [M+H]^+ 298.4 → 161.2, 192.1, 238.2 were selected for SRM analysis. The isolation window for the fragment ions was set at 0.27 amu, the optimum fragmentor voltage was adjusted to 310 V and collision energy −19 eV. All the samples including calibration points were analyzed in three replications. 30 μL of the samples was injected and loaded on chromatographic column. Calibration was performed on standard samples solution prepared in 20% acetonitrile with concentration of stepharine from 10^−4 μg/mL to 100 μg/mL. Chromatographic separation was performed on Thermo Hypersil-Keystone ODS column (Thermo Scientific, USA) 100 × 2.1 mm, 5 μm particle size, at flow rate of 200 μL/min and with the following elution conditions: loading onto the column at maintained 20% of mobile phase B for 3 minutes, increasing the gradient to 50% of B at 5 minutes following increasing the gradient to 100% of mobile phase B at 15 minutes. The column was washed and maintained at 100% mobile phase B from 15 to 22 minutes and the composition was decreased to 20% of solvent B at 23 minute. The column was reequilibrated at starting conditions of solvent A-solvent B system ([…], v/v) for 10 minutes at flow 200 μL/min.
0.5 mL of blood samples from each animal was collected from ear vein in the tubes with EDTA before administration and at 15, 30, 60, 90, 120, 180, 480, 720, and 1440 minutes after drug ingestion. Blood samples were immediately put on ice and centrifuged at 5000 g for 10 minutes at 4°C within one hour after blood collection. The obtained plasma was placed in sterile tube and kept at −20°C until analysis.
Plasma proteins were precipitated with acetonitrile. For this purpose, two volumes of acetonitrile were added to 100 μL of rabbit plasma into 1.5 mL plastic tube and 30% ammonia hydroxide was added to adjust the pH to 10. After vortex-mixing for 15 minutes at ambient temperature one volume of chloroform was added three times consequently for 2 hours and incubated at 30°C under regular stirring at 900 rpm at each occasion. The first fraction of upper organic layer was collected after 2 hours of incubation, the second and the third fractions of chloroform extract were collected after additional 30 and 60 minutes of incubation, respectively. The collected fractions were combined and transferred to a new tube and dried under vacuum at 30°C. The resulting pellet was resuspended in 100 μL of 20% water-acetonitrile solution and centrifuged at 14000 rpm for 15 minutes immediately before use. The obtained solution was used for LC-MS analysis. […]

[5] = test system: denervated extremities at traumatic injuries of sciatic nerve; set-up: method as in ref 4, 5 = [4]; 4 Kuznecov J Arzamascev E Malinovskaja C Pharmacological properties and toxicologic characteristics of stefaglabrin sulphate Medicines Plant Origin in Modern Therapy 1989 2 p. 71 || [5]; 5 Schelchkova II Il'inskaya TN Kuzovkov AD The alkaloids of Stephania glabra Chemistry of Natural Compounds 1965 1 4 210 212; conditions: rabbits, intramuscular injection 0.1 mg/kg; cited from earlier work

## COc1cc2c3c(c1OC)C1(C=CC(=O)C=C1)C[C@H]3NCC2 [stephaglabrine sulfate, Stephaglabrine sulfate]
Synaptic transmission
  frequency of miniature endplate potential: diminishes frequency of miniature endplate potential
pseudocholinesterase
  inhibition of pseudocholinesterase: inhibits
[1]
  antihypertensive activity: possesses antihypertensive activity
cholinesterase
  inhibition of cholinesterase: inhibits
[2]
  solubility in highly nonpolar solvents: low solubility
[3]
  solubility: soluble in water and aqueous alcohol
[4]; rabbit ST01, dosage 0.50 mg (0.1 mg/kg)
  AUC15: 1661 ng∗min/mL
[4]; rabbit ST02, dosage 0.50 mg (0.1 mg/kg)
  AUC15: 3187 ng∗min/mL
[4]; rabbit ST04, dosage 0.45 mg (0.1 mg/kg)
  AUC15: 2516 ng∗min/mL
[4]; rabbit ST05, dosage 0.50 mg (0.1 mg/kg)
  AUC15: 2217 ng∗min/mL
[4]; rabbit ST06, dosage 0.50 mg (0.1 mg/kg)
  AUC15: 2769 ng∗min/mL
[5]
  intensity of trophic disturbances of denervated extremities: significantly decreases intensity of trophic disturbances
